Experimental data from PubChem BioAssay (NCI).
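Briefly, cells in 96-well plates were exposed to five compound concentrations for 48 h, and endpoints were estimated by linear interpolation. GI50 = concentration required for 50% inhibition of growth. The concentration for full growth arrest is given as TGI.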

How the values were obtained:
Test in all cases: NCI-60 cell line screen, 48 h
SN12C renal = system: SN12C renal
ACHN renal = system: ACHN renal
NCI-H460 lung = system: NCI-H460 lung
NCI-H23 lung = system: NCI-H23 lung
EKVX NSCLC = system: EKVX NSCLC
SR leukemia = system: SR leukemia
KM12 colon = system: KM12 colon
UACC-257 melanoma = system: UACC-257 melanoma
U251 CNS = system: U251 CNS
DU-145 prostate = system: DU-145 prostate

## C#CC1(O)CCC2[C@@H]3CCc4cc(Oc5nc(F)nc(-c6c7ccccc7cn6C)n5)ccc4C3CC[C@@]21C (stereo not given in full)
SN12C renal
  TGI: > 100 µM
ACHN renal
  TGI: > 100 µM
NCI-H460 lung
  TGI: > 100 µM
NCI-H23 lung
  TGI: > 100 µM
EKVX NSCLC
  TGI: > 100 µM
SR leukemia
  TGI: > 72.6 µM
KM12 colon
  TGI: > 100 µM
UACC-257 melanoma
  TGI: > 100 µM
U251 CNS
  TGI: > 100 µM

## Cc1ccc(C)c(NC(=O)CC2SC(=Nc3ccccc3Cl)NC2=O)c1 (stereo not given)
SN12C renal
  TGI: > 100 µM
ACHN renal
  TGI: > 100 µM
NCI-H460 lung
  TGI: > 100 µM
NCI-H23 lung
  TGI: > 100 µM
EKVX NSCLC
  TGI: > 100 µM
SR leukemia
  TGI: 55.4 µM
KM12 colon
  TGI: > 100 µM
UACC-257 melanoma
  TGI: > 100 µM
U251 CNS
  TGI: > 100 µM

## CC(=O)c1cc(C(=O)c2ccc3c(c2)Sc2ccccc2N3)c2c(C)cccn12
SN12C renal
  GI50: 0.686 µM
  TGI: > 100 µM
ACHN renal
  GI50: 1.42 µM
  TGI: > 100 µM
NCI-H460 lung
  GI50: 0.213 µM
  TGI: 4.76 µM
DU-145 prostate
  GI50: 0.38 µM
  TGI: > 34.8 µM
NCI-H23 lung
  GI50: 0.611 µM
  TGI: > 100 µM
EKVX NSCLC
  GI50: 0.476 µM
  TGI: > 100 µM
KM12 colon
  GI50: 0.307 µM
  TGI: > 100 µM
UACC-257 melanoma
  GI50: 2.39 µM
  TGI: > 100 µM
U251 CNS
  GI50: 0.325 µM
  TGI: 24 µM

## Cc1ccc(NCCN(C)C)c2c(=O)c3ccccc3sc12
SN12C renal
  GI50: 2.45 µM
  TGI: 9.61 µM
ACHN renal
  GI50: 1.68 µM
  TGI: 3.53 µM
NCI-H460 lung
  GI50: 1.41 µM
  TGI: 3.01 µM
DU-145 prostate
  GI50: 2.02 µM
  TGI: 4.63 µM
NCI-H23 lung
  GI50: 1.97 µM
  TGI: 4.75 µM
EKVX NSCLC
  GI50: 2.96 µM
  TGI: 9.93 µM
KM12 colon
  GI50: 1.66 µM
  TGI: 3.1 µM
UACC-257 melanoma
  GI50: 1.88 µM
  TGI: 3.83 µM
U251 CNS
  GI50: 1.83 µM
  TGI: 3.82 µM

## O=c1[nH]c(=O)n(C2OC(CO)C(O)C2O)cc1OCC(F)(F)F (stereo not given)
SN12C renal
  TGI: > 100 µM
ACHN renal
  TGI: > 100 µM
NCI-H460 lung
  TGI: > 100 µM
NCI-H23 lung
  TGI: > 100 µM
EKVX NSCLC
  TGI: > 100 µM
SR leukemia
  TGI: > 100 µM
KM12 colon
  TGI: > 100 µM
UACC-257 melanoma
  TGI: > 100 µM
U251 CNS
  TGI: > 100 µM

## CC(=O)N(O)Cc1ccccc1
SN12C renal
  TGI: > 100 µM
ACHN renal
  TGI: > 100 µM
NCI-H460 lung
  TGI: > 100 µM
NCI-H23 lung
  TGI: > 100 µM
SR leukemia
  TGI: > 100 µM
KM12 colon
  TGI: > 100 µM
UACC-257 melanoma
  TGI: > 100 µM
U251 CNS
  TGI: > 100 µM

## c1ccc(P(=C2c3ccccc3-c3ccccc32)(c2ccccc2)c2ccccc2)cc1
SN12C renal
  TGI: 10.9 µM
ACHN renal
  TGI: 9.82 µM
NCI-H460 lung
  TGI: 19.2 µM
NCI-H23 lung
  TGI: 9.97 µM
EKVX NSCLC
  TGI: 61.3 µM
KM12 colon
  TGI: 5.58 µM
UACC-257 melanoma
  TGI: 27.3 µM
U251 CNS
  TGI: 9.18 µM

## Cc1cn(-c2ccc(S(C)(=O)=O)cc2)c(-c2ccc(Cl)cc2)n1
SN12C renal
  GI50: > 100 µM
  TGI: > 100 µM
ACHN renal
  GI50: > 100 µM
  TGI: > 100 µM
NCI-H460 lung
  GI50: > 100 µM
  TGI: > 100 µM
DU-145 prostate
  GI50: > 100 µM
  TGI: > 100 µM
NCI-H23 lung
  GI50: > 100 µM
  TGI: > 100 µM
EKVX NSCLC
  GI50: > 100 µM
  TGI: > 100 µM
KM12 colon
  GI50: > 100 µM
  TGI: > 100 µM
UACC-257 melanoma
  GI50: > 100 µM
  TGI: > 100 µM
U251 CNS
  GI50: > 100 µM
  TGI: > 100 µM

## CCOc1ccc(O)cc1[P+](c1ccccc1)(c1ccccc1)c1ccccc1
SN12C renal
  TGI: 13.7 µM
ACHN renal
  TGI: 81.7 µM
NCI-H460 lung
  TGI: 14.5 µM
NCI-H23 lung
  TGI: 5.55 µM
EKVX NSCLC
  TGI: 24.2 µM
KM12 colon
  TGI: 11.7 µM
UACC-257 melanoma
  TGI: 5.9 µM
U251 CNS
  TGI: 15 µM
